From patent US20240122932A1, “Methods of Treating B-Cell Malignancy Using Bcl-2 Inhibitor” (BeiGene Switzerland GmbH, priority 2021, published 2024)

Test system: Toledo diffuse large B cell lymphoma (DLBCL) subcutaneous xenograft
Experiment: Toledo DLBCL subcutaneous xenograft model
Assay type: in vivo, NCG mice
Method: Toledo cells are of diffuse large B cell lymphoma (DLBCL) origin and were obtained from American Type Culture Collection (ATCC CRL-2631, Manassas, VA, DC, USA). Cells were grown in RPMI 1640 medium (Corning. Cat #10-040-CVR), supplemented with 10% (v/v) fetal bovine serum (Gibco, Cat #10099-141C), and 100 μg/mL of penicillin and streptomycin (Gibco, Cat #15140-122). Toledo cells were maintained as suspension cell cultures at 37° C. in a 5% CO2 atmosphere. Five to six-week-old female NCG mice were purchased from Gempharmatech of Information Technology Center. All animals were maintained under specific pathogen free (SPF) “full barrier” condition with free access to food and water. Mice were group-housed under a 12 h light:dark cycle (lights on at 08:00 h), at a temperature of 21-26° C. and 35-61% humidity in IVC cages (Lingyunboji (Beijing) Technology Co., Ltd.). Mice were fed with complete granulated feed with Co60 radiosterilization (Beijing Ke Ao Xie Li Feed Co., Ltd.).
On the day of implantation, Toledo cells were harvested and re-suspended with appropriate volume of ice cold DPBS and same volume of Matrigel (Corning, Cat #356237) to give a final concentration of 1.5×10^7 cells/mL. Re-suspended cells were placed on ice prior to inoculation. The right front flank region of each mouse was cleaned with 75% ethanol prior to cell inoculation. Each animal was injected subcutaneously with 3×10^6 cells in 200 μL of cell suspension in the right front flank via a 26-gauge needle. After implantation, primary tumor volume was measured in two dimensions using a caliper.
Transplanted animals were randomized into 10 groups with 10 mice per group on day 0 according to transplantation sequence and body weight. The groups consisted of vehicle group, 5, 15, 50 mg/kg of venetoclax with QD dosing, 5, 15, 50 mg/kg of Compound 1 with QD dosing, and 2.5, 7.5, 25 mg/kg of Compound 1 with BID dosing. Treatments were administered by oral gavage (p.o.) in a volume of 10 mL/kg body weight. Body weight was assessed immediately before dosing and volume dosed was adjusted accordingly.
Individual body weight was recorded twice weekly, with mice being monitored daily for clinical signs of toxicity for the duration of the study. Mice were euthanized using carbon dioxide when their tumor volume reached 2,000 mm^3, the tumor was ulcerated, or body weight loss exceeded 20%.
Tumor volume was calculated using the formula: V=0.5×(a×b^2) where a and b are the long and short diameters of the tumor, respectively. Tumor growth inhibition (TGI) was calculated using the following formula: % TGI=100×[1−(treatedt−treatedt0)/(vehiclet−vehiclet0)] (treated t=treated tumor volume at time t, treated t0=treated tumor volume at time 0, vehicle t=vehicle tumor volume at time t and vehicle t0=vehicle tumor volume at time 0)

SMILES | Mean Tumor volume (Day 31) (mm^3 ± SEM) (2.5 mg/kg BID × 31 p.o.) [mm^3] | TGI (Day 31) (2.5 mg/kg BID × 31 p.o.) [%] | Mean Tumor volume (Day 31) (mm^3 ± SEM) (5 mg/kg QD × 31 p.o.) [mm^3] | TGI (Day 31) (5 mg/kg QD × 31 p.o.) [%] | Mean Tumor volume (Day 31) (mm^3 ± SEM) (7.5 mg/kg BID × 31 p.o.) [mm^3] | TGI (Day 31) (7.5 mg/kg BID × 31 p.o.) [%] | Mean Tumor volume (Day 31) (mm^3 ± SEM) (15 mg/kg QD × 31 p.o.) [mm^3] | TGI (Day 31) (15 mg/kg QD × 31 p.o.) [%] | Mean Tumor volume (Day 31) (mm^3 ± SEM) (25 mg/kg BID × 31 p.o.) [mm^3] | TGI (Day 31) (25 mg/kg BID × 31 p.o.) [%] | Mean Tumor volume (Day 31) (mm^3 ± SEM) (50 mg/kg QD × 31 p.o.) [mm^3] | TGI (Day 31) (50 mg/kg QD × 31 p.o.) [%] | anti-tumor effects (in words) (2.5, 7.5, 25 mg/kg BID or 5, 15, 50 mg/kg QD, oral) | efficacy compared with venetoclax (same total daily doses of 5 and 15 mg/kg)
CC(C)c1ccccc1[C@@H]1CCCN1C1CC2(CCN(c3ccc(C(=O)NS(=O)(=O)c4ccc(NCC5CCC(C)(O)CC5)c([N+](=O)[O-])c4)c(Oc4cnc5[nH]ccc5c4)c3)CC2)C1 (stereo partly drawn) [Compound 1, 2-((1H-pyrrolo[2,3-b]pyridin-5-yl)oxy)-N-((4-((((1r,4r)-4-hydroxy-4-methylcyclohexyl)methyl)amino)-3-nitrophenyl)sulfonyl)-4-(2-((S)-2-(2-isopropylphenyl)pyrrolidin-1-yl)-7-azaspiro[3.5]nonan-7-yl)benzamide] | 515.7 ± 79.1 | 70 | 679.3 ± 63.2 | 60 | 230.5 ± 25.9 | 86 | 267.4 ± 30.4 | 84 | 182.5 ± 15.9 | 89 | 214.8 ± 19.4 | 87 | induced dose-dependent anti-tumor effects | significantly better efficacy when compared with venetoclax
CC1(C)CCC(CN2CCN(c3ccc(C(=O)NS(=O)(=O)c4ccc(NCC5CCOCC5)c([N+](=O)[O-])c4)c(Oc4cnc5[nH]ccc5c4)c3)CC2)=C(c2ccc(Cl)cc2)C1 [Venetoclax, reference compound] | – | – | 1256.5 ± 136.5 | 26 | – | – | 847.8 ± 109.4 | 50 | – | – | 258.3 ± 22.6 | 85 | – | –
